Test results reported in the supplement of paper PMC10307832.

Assays:
Assay in all cases: relative viability (nuclei count vs DMSO), 5 days (fraction); higher = more cells survive
MK-2206 + Pemetrexed = compound: NC1(c2ccc(-c3nc4ccn5c(=O)[nH]nc5c4cc3-c3ccccc3)cc2)CCC1 [MK-2206] + Nc1nc2[nH]cc(CCc3ccc(C(=O)N[C@@H](CCC(=O)O)C(=O)O)cc3)c2c(=O)[nH]1 [Pemetrexed] (partner 0.2 µM)
Summary of the method: (§1)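 A single step with final 0.05% Triton X-100, 1% formaldehyde and 1 ug/ml Hoechst fixed the cells and stained nuclei 5 days after treatment. Lung cancer cell lines in 1536-well plates had been treated by pin tool the day after seeding with one drug alone or a fixed anchor-drug dose plus five library-drug doses (not always all listed) in √10 steps, and nuclei were counted on 4× images. Relative viability is the ratio of nuclei in treated wells to nuclei in vehicle wells, taken as the median of duplicate plates.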

Pictilisib + Palbociclib = compound: CS(=O)(=O)N1CCN(Cc2cc3nc(-c4cccc5[nH]ncc45)nc(N4CCOCC4)c3s2)CC1 [Pictilisib] + CC(=O)c1c(C)c2cnc(Nc3ccc(N4CCNCC4)cn3)nc2n(C2CCCC2)c1=O [Palbociclib] (partner 0.5 µM)
Summary of the method: as §1

Pictilisib + Foretinib = compound: CS(=O)(=O)N1CCN(Cc2cc3nc(-c4cccc5[nH]ncc45)nc(N4CCOCC4)c3s2)CC1 [Pictilisib] + COc1cc2c(Oc3ccc(NC(=O)C4(C(=O)Nc5ccc(F)cc5)CC4)cc3F)ccnc2cc1OCCCN1CCOCC1 [Foretinib] (partner 0.25 µM)
Summary of the method: as §1

Pictilisib + Dasatinib = compound: CS(=O)(=O)N1CCN(Cc2cc3nc(-c4cccc5[nH]ncc45)nc(N4CCOCC4)c3s2)CC1 [Pictilisib] + Cc1nc(Nc2ncc(C(=O)Nc3c(C)cccc3Cl)s2)cc(N2CCN(CCO)CC2)n1 [Dasatinib] (partner 0.075 µM)
Summary of the method: as §1

Pictilisib + Decitabine = compound: CS(=O)(=O)N1CCN(Cc2cc3nc(-c4cccc5[nH]ncc45)nc(N4CCOCC4)c3s2)CC1 [Pictilisib] + Nc1ncn([C@H]2C[C@H](O)[C@@H](CO)O2)c(=O)n1 [Decitabine] (partner 2 µM)
Summary of the method: as §1

Cell Line	relative viability (MK-2206 + Pemetrexed; first compound 0.01 µM)	relative viability (MK-2206 + Pemetrexed; first compound 0.03162 µM)	relative viability (MK-2206 + Pemetrexed; first compound 0.3162 µM)	relative viability (MK-2206 + Pemetrexed; first compound 1 µM)	relative viability (Pictilisib + Palbociclib; first compound 0.02 µM)	relative viability (Pictilisib + Palbociclib; first compound 0.06325 µM)	relative viability (Pictilisib + Palbociclib; first compound 0.6325 µM)	relative viability (Pictilisib + Palbociclib; first compound 2 µM)	relative viability (Pictilisib + Foretinib; first compound 0.02 µM)	relative viability (Pictilisib + Foretinib; first compound 0.06325 µM)	relative viability (Pictilisib + Foretinib; first compound 0.6325 µM)	relative viability (Pictilisib + Foretinib; first compound 2 µM)	relative viability (Pictilisib + Dasatinib; first compound 0.02 µM)	relative viability (Pictilisib + Dasatinib; first compound 0.06325 µM)	relative viability (Pictilisib + Dasatinib; first compound 0.6325 µM)	relative viability (Pictilisib + Dasatinib; first compound 2 µM)	relative viability (Pictilisib + Decitabine; first compound 0.02 µM)	relative viability (Pictilisib + Decitabine; first compound 0.06325 µM)	relative viability (Pictilisib + Decitabine; first compound 0.6325 µM)	relative viability (Pictilisib + Decitabine; first compound 2 µM)
201T	0.318	0.313	0.342	0.333	0.332	0.377	0.332	0.284	1.06	1.07	0.846	0.617	0.552	0.506	0.464	0.276	0.869	0.83	0.675	0.843
A549	–	–	–	–	–	–	–	–	1.04	0.937	0.771	0.431	–	–	–	–	0.256	0.289	0.259	0.22
A-427	1.03	0.925	1.07	1.05	0.512	0.511	0.504	0.508	1.15	0.929	1	0.604	0.666	0.616	0.648	0.347	0.579	0.492	0.486	0.453
ABC-1	–	–	–	–	0.683	0.583	0.469	0.416	1.37	0.903	0.863	0.803	0.664	0.55	0.522	0.473	1.16	1.19	1.07	0.703
BEN	0.736	0.767	0.679	0.697	0.442	0.488	0.443	0.439	0.83	0.599	0.587	0.538	0.351	0.3	0.355	0.285	0.659	0.776	0.806	0.554
CAL-12T	1.12	1.07	1.28	1.06	0.385	0.604	0.457	0.167	1.09	1.14	1.08	0.918	0.352	0.3	0.141	0.0923	–	–	–	–
COR-L23	0.184	0.187	0.195	0.172	0.335	0.349	0.273	0.208	1.01	1.07	0.979	0.934	0.445	0.481	0.384	0.295	0.443	0.474	0.402	0.372
COR-L 105	1.22	1.08	1.29	1.28	0.429	0.477	0.423	0.399	1.08	1.09	0.996	0.49	0.414	0.283	0.209	0.181	0.681	0.656	0.62	0.541
Calu-6	–	–	–	–	–	–	–	–	0.979	0.959	0.834	0.703	–	–	–	–	–	–	–	–
ChaGo-K-1	0.267	0.268	0.265	0.265	0.942	0.954	0.844	0.72	0.896	0.924	0.838	0.721	0.628	0.682	0.517	0.384	0.526	0.51	0.491	0.495
EBC-1	–	–	–	–	–	–	–	–	0.122	0.0955	0.112	0.115	–	–	–	–	–	–	–	–
EKVX	0.372	0.386	0.393	0.356	0.378	0.348	0.348	0.184	0.855	0.88	0.721	0.438	0.534	0.414	0.303	0.16	0.318	0.334	0.249	0.195
EMC-BAC-2	0.435	0.377	0.439	0.407	0.502	0.498	0.401	0.337	0.946	0.922	0.813	0.664	0.317	0.324	0.247	0.199	0.967	0.978	0.838	0.653
EPLC-272H	0.329	0.319	0.3	0.354	0.348	0.298	0.317	0.243	0.711	0.687	0.376	0.173	0.304	0.323	0.216	0.142	0.428	0.371	0.319	0.171
H3255	0.557	0.614	0.538	0.508	0.314	0.375	0.297	0.292	0.813	0.884	0.571	0.494	0.447	0.31	0.252	0.213	0.667	0.521	0.466	0.342
HARA	0.269	0.23	0.265	0.217	0.305	0.269	0.187	0.161	0.828	0.906	0.851	0.581	0.256	0.246	0.163	0.142	0.605	0.64	0.453	0.307
HCC-15	0.254	0.198	0.218	0.204	0.682	0.704	0.678	0.475	1.07	0.966	0.852	0.659	0.639	0.627	0.492	0.301	0.668	0.609	0.406	0.369
HCC-44	0.632	0.593	0.61	0.675	1.02	1.01	0.955	0.977	–	–	–	–	–	–	–	–	0.92	0.958	0.926	0.94
HCC-78	0.934	0.924	0.909	0.934	0.566	0.481	0.403	0.361	0.488	0.5	0.392	0.308	0.379	0.359	0.222	0.189	0.604	0.607	0.6	0.402

Cell Line	relative viability (MK-2206 + Pemetrexed; first compound 0.01 µM)	relative viability (MK-2206 + Pemetrexed; first compound 0.03162 µM)	relative viability (MK-2206 + Pemetrexed; first compound 0.3162 µM)	relative viability (MK-2206 + Pemetrexed; first compound 1 µM)	relative viability (Pictilisib + Palbociclib; first compound 0.02 µM)	relative viability (Pictilisib + Palbociclib; first compound 0.06325 µM)	relative viability (Pictilisib + Palbociclib; first compound 0.6325 µM)	relative viability (Pictilisib + Palbociclib; first compound 2 µM)	relative viability (Pictilisib + Foretinib; first compound 0.02 µM)	relative viability (Pictilisib + Foretinib; first compound 0.06325 µM)	relative viability (Pictilisib + Foretinib; first compound 0.6325 µM)	relative viability (Pictilisib + Foretinib; first compound 2 µM)	relative viability (Pictilisib + Dasatinib; first compound 0.02 µM)	relative viability (Pictilisib + Dasatinib; first compound 0.06325 µM)	relative viability (Pictilisib + Dasatinib; first compound 0.6325 µM)	relative viability (Pictilisib + Dasatinib; first compound 2 µM)	relative viability (Pictilisib + Decitabine; first compound 0.02 µM)	relative viability (Pictilisib + Decitabine; first compound 0.06325 µM)	relative viability (Pictilisib + Decitabine; first compound 0.6325 µM)	relative viability (Pictilisib + Decitabine; first compound 2 µM)
HCC-366	0.154	0.166	0.302	0.266	0.434	0.305	0.133	0.0473	0.978	0.936	0.68	0.329	0.537	0.566	0.193	0.0747	0.335	0.304	0.194	0.114
HCC-827	0.272	0.242	0.268	0.274	0.517	0.415	0.234	0.188	0.996	1.04	0.931	0.392	0.357	0.242	0.183	0.136	0.258	0.363	0.288	0.311
HOP-62	0.381	0.272	0.273	0.375	0.526	0.423	0.399	0.287	1.05	1.16	1.05	1.03	0.627	0.573	0.43	0.26	0.215	0.283	0.267	0.329
IA-LM	–	–	–	–	–	–	–	–	1.2	1.14	0.894	0.518	–	–	–	–	–	–	–	–
LC-2-ad	0.282	0.254	0.28	0.25	0.486	0.532	0.298	0.265	0.959	0.948	0.662	0.491	0.739	0.516	0.248	0.177	0.758	0.836	0.661	0.637
LCLC-97TM1	0.186	0.138	0.146	0.189	0.206	0.269	0.125	0.0838	0.991	0.972	0.714	0.239	0.8	0.919	0.781	0.602	0.244	0.238	0.169	0.18
LCLC-103H	0.441	0.435	0.485	0.442	0.525	0.485	0.44	0.351	0.77	0.634	0.403	0.393	0.457	0.547	0.367	0.142	0.705	0.77	0.55	0.617
LK-2	0.265	0.309	0.246	0.252	0.588	0.673	0.354	0.259	0.999	0.885	0.812	0.347	0.278	0.324	0.185	0.185	0.238	0.302	0.197	0.163
LOU-NH91	0.366	0.406	0.345	0.356	0.524	0.546	0.563	0.514	0.73	0.886	0.834	0.738	0.581	0.546	0.443	0.359	0.827	0.829	0.771	0.7
NCI-H522	1.04	0.964	0.887	1	1.07	0.785	0.833	0.692	–	–	–	–	0.75	0.984	0.79	0.664	0.66	0.609	0.657	0.607
NCI-H596	0.45	0.567	0.502	0.498	–	–	–	–	0.603	0.735	0.454	0.283	0.569	0.537	0.325	0.207	0.963	1.02	0.756	0.403
NCI-H727	–	–	–	–	0.595	0.65	0.541	0.496	0.76	0.843	0.672	0.467	0.319	0.38	0.292	0.342	0.651	0.979	0.699	0.781
NCI-H1299	–	–	–	–	–	–	–	–	1.06	1.19	1.22	1.06	–	–	–	–	–	–	–	–
NCI-H1563	0.746	0.771	0.697	0.744	–	–	–	–	0.839	0.935	0.674	0.532	0.431	0.39	0.356	0.316	–	–	–	–
NCI-H1623	–	–	–	–	–	–	–	–	0.773	0.792	0.639	0.348	0.55	0.487	0.472	0.251	–	–	–	–
NCI-H1648	0.719	0.651	0.691	0.786	0.248	0.236	0.256	0.216	–	–	–	–	–	–	–	–	0.528	0.469	0.367	0.319
NCI-H1703	–	–	–	–	–	–	–	–	0.34	0.372	0.321	0.27	–	–	–	–	–	–	–	–
NCI-H1792	0.76	0.929	0.654	0.373	0.62	0.693	0.512	0.34	–	–	–	–	0.811	0.795	0.417	0.228	0.509	0.592	0.491	0.22
NCI-H2228	0.333	0.307	0.336	0.318	0.64	1.04	0.492	0.282	0.853	0.917	0.496	0.291	0.654	0.433	0.317	0.167	–	–	–	–
